# Measurements as given in article PMC10969742, “A Phase I Study of the Oral Dual-Acting Pan-PI3K/mTOR Inhibitor Bimiralisib in Patients with Advanced Solid Tumors” (Cancers, 2024).
# “Also recorded” adds a separate entry of the source.
# Test system: patients with advanced solid tumors
# Assay: Phase 1 3 + 3 dose escalation: DLTs and MTD determination
# Assay type: in vivo
# Experimental: The primary objective of the study was to determine the MTD of bimiralisib administered according to three different dosing schedules. Bimiralisib was formulated as 20 mg and 80 mg capsules for oral administration. The first dosing schedule to be evaluated was continuous (once daily) dosing over a 21-day cycle. […] Patients enrolled in the continuous schedule and intermittent schedule A received a single lead-in dose, administered on […] prior to the start of the first 21-day treatment cycle, to characterize single-dose pharmacokinetics. Based on the previous first-in-human trial with bimiralisib, together with the expected toxicity profile of PI3K/mTOR inhibitors, the starting dose (dose-level 1) of bimiralisib in Study PQR309-003 was set at 80 mg daily.
# Enrollment of cohorts into the dose escalation followed a typical 3 + 3 design, with escalation/de-escalation based on the dose-limiting toxicities observed as described in Table 1 and Table 2. Up to 5 dose levels were planned in the continuous schedule to a maximum of 180 mg daily. For the intermittent schedules, up to 7 dose levels were planned, to a maximum of 240 mg daily. One dose level for de-escalation was planned for all schedules. Patient cohorts, consisting initially of three patients, were enrolled depending on the safety and tolerability of the initial cohort. Patients were treated until disease progression, unacceptable toxicity, patient’s request for withdrawal, investigator judgment, or death, whichever came first.
# Safety was monitored by physical examination, vital signs, weight, electrocardiogram, ECOG performance status, laboratory evaluations (including glucose monitoring), and patient self-reported mood questionnaires, as well as AEs. All AEs were coded with NCI Common Terminology Criteria for Adverse Events (CTCAE) v4.03 [27]. The MTD was defined as the maximum dose level at which ≤1/6 patients have DLTs. A DLT was defined by the occurrence of grade 3 or 4 AE that is possibly, probably, or definitely related to bimiralisib within the first 21 days of treatment. Bimiralisib treatment was interrupted if patients experienced any DLTs. If the patient derived benefit from the treatment as determined by the investigator, treatment could be resumed at a lower dose in agreement with the study sponsor.
compound,measurement,setting,value
"Nc1cc(C(F)(F)F)c(-c2nc(N3CCOCC3)nc(N3CCOCC3)n2)cn1 [bimiralisib, 5-(4,6-Dimorpholino-1,3,5-triazin-2-yl)-4-(trifluoromethyl)pyridin-2-amine]",Maximum tolerated dose (MTD),continuous schedule (once daily),80 mg
same,"Dose-limiting toxicity (DLT), kind",in vivo,grade three fatigue
same,Patients with dose interruptions or discontinuation due to treatment-related AEs during first 21-day dosing cycle,in vivo,Four of these five
same,Maximum tolerated dose (MTD),"intermittent schedules A and B, up to 200 mg",No MTD was reached; also recorded: neither intermittent schedule reached MTD
